From US20250049806A1, “PHARMACEUTICAL COMPOSITION FOR PROVIDING TREATMENT FOR OR PREVENTING ALPORT SYNDROME” (UBE Corporation, priority 2021, published 2025) come the findings set out here.

This series is described as follows: Transcellular transport test using Caco2 cell. It counts as in vitro ADME. The note with it: human, Caco-2, apical-to-basolateral (A-to-B), pH=7.4, 10 µM compound. An outline of the steps:
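Caco2 monolayers grown 20–22 days were dosed apically in HBSS/20 mM HEPES pH 7.4 (10 mM DMSO stock diluted 1000-fold, 0.1% DMSO) for 90 min at 37 °C. Basolateral compound was measured by LC-MS/MS and donor concentration by UV-HPLC. Papp (A-to-B) was derived from the slope and graded A–D.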
The Papp A→B is the apparent permeability from the apical to the basolateral side of a cell layer. A higher Papp A→B goes with fast passage. The compound `O=C(O)C[C@H](NC(=O)CNC(=O)c1cc(NC2=NCC(F)CN2)c2cn[nH]c2c1)c1cc(OC(F)F)cc(C(F)(F)F)c1` (stereo partly drawn) [24-(b), (3S)-3-(3-(difluoromethoxy)-5-(trifluoromethyl)phenyl)-3-(2-(4-((5-fluoro-1,4,5,6-tetrahydropyrimidin-2-yl)amino)-1H-indazole-6-carboxamido)acetamido)propanoic acid] registered a Papp A→B at 90 min, 10 µM of 0.5 to 1 ×10⁻⁶ cm/s.
The compound `O=C(O)C[C@H](NC(=O)CNC(=O)c1cc(NC2=NCCCN2)c2cn[nH]c2c1)c1cc(Cl)cc(C(F)(F)F)c1` [51-(b), (S)-3-(3-chloro-5-(trifluoromethyl)phenyl)-3-(2-(4-((1,4,5,6-tetrahydropyrimidin-2-yl)amino)-1H-indazole-6-carboxamido)acetamido)propanoic acid] registered a Papp A→B at 90 min, 10 µM above 1 ×10⁻⁶ cm/s.
Compound `O=C(O)C[C@H](NC(=O)CNC(=O)c1cc(NC2=NCC(F)CN2)c2cn[nH]c2c1)c1cc(Cl)cc(I)c1` (stereo partly drawn) [21-(b), (3S)-3-(3-chloro-5-iodophenyl)-3-(2-(4-((5-fluoro-1,4,5,6-tetrahydropyrimidin-2-yl)amino)-1H-indazole-6-carboxamido)acetamido)propanoic acid] gave a Papp A→B at 90 min, 10 µM above 1 ×10⁻⁶ cm/s.
On to `O=C(O)C[C@H](NC(=O)CNC(=O)c1cc(NC2=NCC(F)CN2)c2cn[nH]c2c1)c1cccc(-n2cccn2)c1` (stereo partly drawn) [43-(b), (3S)-3-(3-(1H-pyrazol-1-yl)phenyl)-3-(2-(4-((5-fluoro-1,4,5,6-tetrahydropyrimidin-2-yl)amino)-1H-indazole-6-carboxamido)acetamido)propanoic acid], for which the Papp A→B at 90 min, 10 µM was above 1 ×10⁻⁶ cm/s.
For the compound `O=C(O)C[C@H](NC(=O)CNC(=O)c1cc(NC2=NCC(F)CN2)c2cn[nH]c2c1)c1cccc(Br)c1` (stereo partly drawn) [42-(b), (3S)-3-(3-bromophenyl)-3-(2-(4-((5-fluoro-1,4,5,6-tetrahydropyrimidin-2-yl)amino)-1H-indazole-6-carboxamido)acetamido)propanoic acid], the apical-to-basolateral permeability (Papp A→B) at 90 min, 10 µM was above 1 ×10⁻⁶ cm/s.
As for `O=C(O)C[C@H](NC(=O)CNC(=O)c1cc(NC2=NCC(F)CN2)c2cn[nH]c2c1)c1cccc(OC2CC2)c1` (stereo partly drawn) [40-(b), (3S)-3-(3-cyclopropoxyphenyl)-3-(2-(4-((5-fluoro-1,4,5,6-tetrahydropyrimidin-2-yl)amino)-1H-indazole-6-carboxamido)acetamido)propanoic acid], the figure is above 1 ×10⁻⁶ cm/s; as for `O=C(O)C[C@H](NC(=O)CNC(=O)c1cc(NC2=NCC(F)CN2)c2cn[nH]c2c1)c1cc(OC(F)F)ccc1F` (stereo partly drawn) [28-(b), (3S)-3-(5-(difluoromethoxy)-2-fluorophenyl)-3-(2-(4-((5-fluoro-1,4,5,6-tetrahydropyrimidin-2-yl)amino)-1H-indazole-6-carboxamido)acetamido)propanoic acid], above 1 ×10⁻⁶ cm/s.
The compound `O=C(O)C[C@H](NC(=O)CNC(=O)c1cc(NC2=NCC(F)CN2)c2c(Cl)n[nH]c2c1)c1cc(Cl)cc(C(F)(F)F)c1` (stereo partly drawn) [49-(b), (3S)-3-(2-(3-chloro-4-((5-fluoro-1,4,5,6-tetrahydropyrimidin-2-yl)amino)-1H-indazole-6-carboxamido)acetamido)-3-(3-chloro-5-(trifluoromethyl)phenyl)propanoic acid] had a Papp A→B at 90 min, 10 µM of 0.5 to 1 ×10⁻⁶ cm/s.
Take `O=C(O)C[C@H](NC(=O)CNC(=O)c1cc(NC2=NCC(F)CN2)c2cn[nH]c2c1)c1cc(F)cc(C(F)(F)F)c1` (stereo partly drawn) [6-(b), (3S)-3-(2-(4-((5-fluoro-1,4,5,6-tetrahydropyrimidin-2-yl)amino)-1H-indazole-6-carboxamido)acetamido)-3-(3-fluoro-5-(trifluoromethyl)phenyl)propanoic acid]: the Papp A→B at 90 min, 10 µM was above 1 ×10⁻⁶ cm/s.
With `O=C(O)C[C@H](NC(=O)CNC(=O)c1cc(NC2=NCC(F)CN2)c2cn[nH]c2c1)c1cc(Br)cc(I)c1` (stereo partly drawn) [20-(b), (3S)-3-(3-bromo-5-iodophenyl)-3-(2-(4-((5-fluoro-1,4,5,6-tetrahydropyrimidin-2-yl)amino)-1H-indazole-6-carboxamido)acetamido)propanoic acid] the figure was above 1 ×10⁻⁶ cm/s.
